Paper PMC9476189 (ACS Omega, 2022)
Entries after “also recorded” stand apart in the source; their conditions may differ.

What was measured:
BChE = BChE (Homo sapiens, UniProt P06276); settings: mean ± SEM, triplicate; for IC50: read-out: BChE inhibition, IC50
AChE = AChE (Homo sapiens, UniProt P22303); settings: for AChE inhibition, inhibition (%) at 0.5 mM / IC50: mean ± SEM, triplicate; for IC50: read-out: AChE inhibition, IC50
urease = urease (Canavalia ensiformis, UniProt P07374); settings: mean ± SEM, triplicate; for IC50: read-out: urease inhibition, IC50
urease, sequence (P07374 whole entry, looked up): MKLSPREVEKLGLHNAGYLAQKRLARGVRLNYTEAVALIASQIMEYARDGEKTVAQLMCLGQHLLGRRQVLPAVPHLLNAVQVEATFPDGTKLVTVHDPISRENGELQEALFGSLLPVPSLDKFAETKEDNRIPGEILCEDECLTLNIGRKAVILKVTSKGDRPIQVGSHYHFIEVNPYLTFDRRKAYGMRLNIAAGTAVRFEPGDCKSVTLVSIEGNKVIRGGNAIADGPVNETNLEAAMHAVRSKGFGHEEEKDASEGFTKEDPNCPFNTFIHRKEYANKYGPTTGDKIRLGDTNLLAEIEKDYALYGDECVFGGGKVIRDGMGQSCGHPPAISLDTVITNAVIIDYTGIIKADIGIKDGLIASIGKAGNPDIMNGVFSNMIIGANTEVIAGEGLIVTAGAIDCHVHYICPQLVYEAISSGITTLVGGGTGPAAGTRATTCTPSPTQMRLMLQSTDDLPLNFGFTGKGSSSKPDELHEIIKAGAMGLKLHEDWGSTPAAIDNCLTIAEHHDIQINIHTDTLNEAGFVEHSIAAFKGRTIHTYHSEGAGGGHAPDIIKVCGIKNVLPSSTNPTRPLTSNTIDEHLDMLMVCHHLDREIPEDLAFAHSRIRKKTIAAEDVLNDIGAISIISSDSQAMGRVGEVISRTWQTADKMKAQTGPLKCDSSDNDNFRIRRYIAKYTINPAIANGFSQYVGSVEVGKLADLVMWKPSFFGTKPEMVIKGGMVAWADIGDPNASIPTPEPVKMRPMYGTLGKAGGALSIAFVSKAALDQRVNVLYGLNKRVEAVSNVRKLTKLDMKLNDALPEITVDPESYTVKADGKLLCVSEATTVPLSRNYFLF

α-glucosidase = α-glucosidase (Saccharomyces cerevisiae, UniProt P53341); experiment: α-Glucosidase assay; assay type: biochemical; settings: for α-glucosidase inhibition, inhibition (%) at 0.5 mM / IC50: mean ± SEM, triplicate; for IC50: read-out: α-glucosidase inhibition, IC50
α-glucosidase, sequence (P53341 whole entry): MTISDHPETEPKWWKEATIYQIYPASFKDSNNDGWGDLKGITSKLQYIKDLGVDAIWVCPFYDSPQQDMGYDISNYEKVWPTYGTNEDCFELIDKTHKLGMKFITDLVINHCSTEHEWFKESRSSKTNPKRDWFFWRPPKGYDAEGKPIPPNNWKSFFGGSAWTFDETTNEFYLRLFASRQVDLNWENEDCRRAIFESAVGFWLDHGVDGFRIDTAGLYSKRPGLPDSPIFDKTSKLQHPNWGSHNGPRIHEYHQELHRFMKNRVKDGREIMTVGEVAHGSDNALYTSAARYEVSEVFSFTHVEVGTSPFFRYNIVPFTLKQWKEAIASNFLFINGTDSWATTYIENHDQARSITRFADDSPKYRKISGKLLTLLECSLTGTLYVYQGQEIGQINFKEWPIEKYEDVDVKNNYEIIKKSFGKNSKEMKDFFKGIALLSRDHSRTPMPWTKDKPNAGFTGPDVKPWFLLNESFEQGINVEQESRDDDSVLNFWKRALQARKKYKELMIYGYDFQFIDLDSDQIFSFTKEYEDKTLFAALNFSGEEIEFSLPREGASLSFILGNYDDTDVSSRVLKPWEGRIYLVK

LOX = target: T1, LOX (Glycine max, UniProt P08170); experiment: Lipoxygenase assay; assay type: biochemical; settings: mean ± SEM, triplicate; for IC50: read-out: LOX inhibition, IC50
T1 sequence (P08170 1-839): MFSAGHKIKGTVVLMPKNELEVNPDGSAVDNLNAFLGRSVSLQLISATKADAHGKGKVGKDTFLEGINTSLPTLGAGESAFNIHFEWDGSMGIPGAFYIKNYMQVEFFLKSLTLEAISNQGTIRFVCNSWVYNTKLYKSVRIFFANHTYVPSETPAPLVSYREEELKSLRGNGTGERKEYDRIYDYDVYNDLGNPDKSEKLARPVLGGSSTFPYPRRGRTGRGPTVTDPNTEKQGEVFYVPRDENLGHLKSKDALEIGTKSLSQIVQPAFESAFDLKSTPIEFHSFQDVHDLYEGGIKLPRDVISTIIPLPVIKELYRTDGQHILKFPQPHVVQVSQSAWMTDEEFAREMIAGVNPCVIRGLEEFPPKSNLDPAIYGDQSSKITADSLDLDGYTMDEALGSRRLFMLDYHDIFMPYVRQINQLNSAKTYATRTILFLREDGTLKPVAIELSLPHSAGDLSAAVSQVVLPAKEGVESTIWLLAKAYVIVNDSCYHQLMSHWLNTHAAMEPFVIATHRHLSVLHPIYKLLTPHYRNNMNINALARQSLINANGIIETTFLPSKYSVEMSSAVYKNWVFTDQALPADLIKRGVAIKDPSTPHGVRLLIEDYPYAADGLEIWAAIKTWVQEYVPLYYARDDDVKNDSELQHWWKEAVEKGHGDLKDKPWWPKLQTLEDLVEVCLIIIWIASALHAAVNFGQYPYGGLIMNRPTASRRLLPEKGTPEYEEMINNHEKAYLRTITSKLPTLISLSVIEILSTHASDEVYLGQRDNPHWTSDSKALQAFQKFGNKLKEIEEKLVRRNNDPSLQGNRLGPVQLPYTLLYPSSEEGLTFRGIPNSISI

AChE, sequence (P22303 32-614): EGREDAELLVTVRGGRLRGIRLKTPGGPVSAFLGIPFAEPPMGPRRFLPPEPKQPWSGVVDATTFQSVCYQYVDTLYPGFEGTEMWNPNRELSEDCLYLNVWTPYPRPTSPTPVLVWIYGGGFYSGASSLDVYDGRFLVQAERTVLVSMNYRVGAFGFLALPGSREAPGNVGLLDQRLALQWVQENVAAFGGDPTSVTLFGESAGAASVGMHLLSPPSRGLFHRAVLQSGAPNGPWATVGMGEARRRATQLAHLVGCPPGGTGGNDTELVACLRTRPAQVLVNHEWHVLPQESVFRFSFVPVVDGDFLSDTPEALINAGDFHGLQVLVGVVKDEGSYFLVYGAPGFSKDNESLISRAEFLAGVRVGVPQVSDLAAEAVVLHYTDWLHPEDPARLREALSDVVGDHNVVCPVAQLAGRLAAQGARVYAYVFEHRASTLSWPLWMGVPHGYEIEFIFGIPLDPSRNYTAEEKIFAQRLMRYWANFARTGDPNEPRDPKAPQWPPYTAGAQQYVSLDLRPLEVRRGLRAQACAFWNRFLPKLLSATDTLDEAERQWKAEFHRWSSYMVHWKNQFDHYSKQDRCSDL
BChE, sequence (P06276 29-602, species assumed): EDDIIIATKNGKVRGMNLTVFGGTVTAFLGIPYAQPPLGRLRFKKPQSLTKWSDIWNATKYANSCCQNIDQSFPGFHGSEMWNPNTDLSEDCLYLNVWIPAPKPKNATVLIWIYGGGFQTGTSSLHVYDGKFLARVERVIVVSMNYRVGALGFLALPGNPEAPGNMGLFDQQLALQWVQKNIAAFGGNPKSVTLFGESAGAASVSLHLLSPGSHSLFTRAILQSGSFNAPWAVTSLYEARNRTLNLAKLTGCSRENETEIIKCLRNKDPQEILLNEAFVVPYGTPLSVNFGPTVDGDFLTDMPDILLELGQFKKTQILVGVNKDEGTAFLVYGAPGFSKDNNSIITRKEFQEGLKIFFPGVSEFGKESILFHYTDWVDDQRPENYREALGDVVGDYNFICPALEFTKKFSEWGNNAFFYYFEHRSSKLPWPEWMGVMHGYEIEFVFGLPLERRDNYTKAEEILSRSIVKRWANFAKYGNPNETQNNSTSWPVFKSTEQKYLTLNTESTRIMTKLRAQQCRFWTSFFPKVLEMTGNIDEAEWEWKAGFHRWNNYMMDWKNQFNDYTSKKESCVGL

| SMILES | BChE inhibition, inhibition (%) at 0.5 mM (BChE) | activity against AChE enzyme (in words) (AChE) | AChE inhibition, inhibition (%) at 0.5 mM (AChE) | IC50 (AChE) | urease inhibition, inhibition (%) at 0.25 mM (urease) | IC50 (urease) | α-glucosidase inhibition, inhibition (%) at 0.5 mM (α-glucosidase) | IC50 (α-glucosidase) | LOX inhibition, inhibition (%) at 0.25 mM (LOX) | IC50 (LOX) | IC50 (BChE) | activity against α-glucosidase enzyme (in words) (α-glucosidase) |
| --- | --- | --- | --- | --- | --- | --- | --- | --- | --- | --- | --- | --- |
| Cc1ccc(S(=O)(=O)N2CCC(c3nnc(SCC(=O)Nc4ccc(C)cc4C)n3C)CC2)cc1 [Compound 12j, 1-(4-toluenesulfonyl)-4-{3-[N-(2,4-dimethylphenyl)-2-ethanamoylthio]-4-methyl-4H-1,2,4-triazol-5-yl} piperidine] | 37.62 ± 0.87% | excellent activity | 88.36 ± 0.79% | 94.63 ± 0.57 µM | 73.52 ± 1.65% | 167.2 ± 1.34 µM | 72.25 ± 1.85% | 365.9 ± 1.42 µM | 23.54 ± 0.85% |  |  |  |
| CCOc1ccc(NC(=O)CSc2nnc(C3CCN(S(=O)(=O)c4ccc(C)cc4)CC3)n2C)cc1 [Compound 12h, 1-(4-toluenesulfonyl)-4-{3-[N-(4-ethoxyphenyl)-2-ethanamoylthio]-4-methyl-4H-1,2,4-triazol-5-yl} piperidine] | 16.51 ± 0.35% |  | 37.41 ± 0.62% |  | 42.63 ± 1.52% |  | 73.12 ± 1.58% | 286.6 ± 1.25 µM | 63.53 ± 0.52% | 92.45 ± 0.26 µM |  |  |
| Cc1ccc(S(=O)(=O)N2CCC(c3nnc(SCC(=O)Nc4ccccc4C)n3C)CC2)cc1 [Compound 12c, 1-(4-toluenesulfonyl)-4-{3-[N-(2-methylphenyl)-2-ethanamoylthio]-4-methyl-4H-1,2,4-triazol-5-yl} piperidine] | 37.83 ± 0.42% |  | 82.36 ± 0.67% | 134.6 ± 0.53 µM | 75.45 ± 1.72% | 163.8 ± 1.45 µM | 72.45 ± 1.75% | 327.8 ± 1.57 µM | 36.47 ± 0.76% |  |  |  |
| CCc1ccccc1NC(=O)CSc1nnc(C2CCN(S(=O)(=O)c3ccc(C)cc3)CC2)n1C [Compound 12f, 1-(4-toluenesulfonyl)-4-{3-[N-(2-ethylphenyl)-2-ethanamoylthio]-4-methyl-4H-1,2,4-triazol-5-yl} piperidine] | 39.78 ± 0.57% |  | 39.62 ± 0.55% |  | 36.35 ± 1.78% |  | 74.95 ± 1.74% | 275.8 ± 1.37 µM | 62.38 ± 0.75% | 96.32 ± 0.37 µM |  |  |
| Cc1ccc(S(=O)(=O)N2CCC(c3nnc(SCC(=O)Nc4c(C)cccc4[N+](=O)[O-])n3C)CC2)cc1 [Compound 12o, 1-(4-toluenesulfonyl)-4-{3-[N-(2-methyl-6-nitrophenyl)-2-ethanamoylthio]-4-methyl-4H-1,2,4-triazol-5-yl} piperidine] | 39.65 ± 0.42% |  | 81.53 ± 0.96% | 129.6 ± 0.73 µM | 56.35 ± 1.67% | 241.8 ± 0.42 µM | 72.23 ± 1.51% | 285.6 ± 1.23 µM | 64.28 ± 0.73% | 93.81 ± 0.34 µM |  |  |
| COc1ccccc1NC(=O)CSc1nnc(C2CCN(S(=O)(=O)c3ccc(C)cc3)CC2)n1C [Compound 12g, 1-(4-toluenesulfonyl)-4-{3-[N-(2-methoxyphenyl)-2-ethanamoylthio]-4-methyl-4H-1,2,4-triazol-5-yl} piperidine] | 24.72 ± 0.56% |  | 79.24 ± 0.89% | 149.8 ± 0.67 µM | 42.87 ± 1.51% |  | 71.45 ± 1.73% | 267.4 ± 1.52 µM | 41.55 ± 0.51% |  |  |  |
| Cc1ccc(NC(=O)CSc2nnc(C3CCN(S(=O)(=O)c4ccc(C)cc4)CC3)n2C)cc1 [Compound 12e, 1-(4-toluenesulfonyl)-4-{3-[N-(4-methylphenyl)-2-ethanamoylthio]-4-methyl-4H-1,2,4-triazol-5-yl} piperidine] | 96.47 ± 0.76% | excellent activity | 87.43 ± 0.77% | 97.86 ± 0.65 µM | 39.26 ± 1.43% |  | 72.75 ± 1.58% | 314.6 ± 1.24 µM | 48.36 ± 0.43% |  | 0.053 µM |  |
| Cc1ccc(S(=O)(=O)N2CCC(c3nnc(SCC(=O)Nc4ccccc4)n3C)CC2)cc1 [Compound 12b, 1-(4-toluenesulfonyl)-4-[3-(N-phenyl-2-ethanamoylthio)-4-methyl-4H-1,2,4-triazol-5-yl] piperidine] | 63.42 ± 0.75% | excellent activity | 89.15 ± 0.68% | 85.46 ± 0.45 µM | 31.23 ± 1.42% |  | 76.23 ± 1.58% | 264.3 ± 1.24 µM | 35.25 ± 0.42% |  | 279.4 ± 0.59 µM |  |
| Cc1ccc(S(=O)(=O)N2CCC(c3nnc(SCC(=O)Nc4cccc(C)c4C)n3C)CC2)cc1 [Compound 12i, 1-(4-toluenesulfonyl)-4-{3-[N-(2,3-dimethylphenyl)-2-ethanamoylthio]-4-methyl-4H-1,2,4-triazol-5-yl} piperidine] | 36.47 ± 0.75% |  | 82.51 ± 0.85% | 117.4 ± 0.64 µM | 75.82 ± 1.79% | 143 ± 1.52 µM | 31.53 ± 1.37% |  | 24.12 ± 0.59% |  |  |  |
| Cc1ccc(S(=O)(=O)N2CCC(c3nnc(SCC(=O)NC4CCCCC4)n3C)CC2)cc1 [Compound 12a, 1-(4-toluenesulfonyl)-4-[3-(N-cyclohexyl-2-ethanamoylthio)-4-methyl-4H-1,2,4-triazol-5-yl] piperidine] | 21.93 ± 0.62% |  | 52.37 ± 0.78% | 476.3 ± 0.57 µM | 25.34 ± 1.42% |  | 87.25 ± 1.65% | 135 ± 1.39 µM | 39.47 ± 0.82% |  |  |  |
| Cc1ccc(S(=O)(=O)N2CCC(c3nnc(SCC(=O)Nc4cc(C)cc(C)c4)n3C)CC2)cc1 [Compound 12m, 1-(4-toluenesulfonyl)-4-{3-[N-(3,5-dimethylphenyl)-2-ethanamoylthio]-4-methyl-4H-1,2,4-triazol-5-yl} piperidine] | 91.25 ± 0.45% | excellent activity | 92.73 ± 0.87% | 0.42 ± 0.67 µM | 98.65 ± 1.67% | 14.3 ± 1.27 µM | 87.21 ± 1.46% | 142.7 ± 1.23 µM | 37.45 ± 0.37% |  | 0.038 µM |  |
| CCc1cccc(C)c1NC(=O)CSc1nnc(C2CCN(S(=O)(=O)c3ccc(C)cc3)CC2)n1C [Compound 12n, 1-(4-toluenesulfonyl)-4-{3-[N-(2-ethyl-6-methylphenyl)-2-ethanamoylthio]-4-methyl-4H-1,2,4-triazol-5-yl} piperidine] | 36.24 ± 0.59% |  | 61.53 ± 0.65% | 328.1 ± 0.45 µM | 32.85 ± 1.39% |  | 92.65 ± 1.64% | 29.4 ± 1.32 µM | 35.65 ± 0.49% |  |  | excellent activity; also recorded: most active compound |
| Cc1ccc(S(=O)(=O)N2CCC(c3nnc(SCC(=O)Nc4c(C)cccc4C)n3C)CC2)cc1 [Compound 12l, 1-(4-toluenesulfonyl)-4-{3-[N-(2,6-dimethylphenyl)-2-ethanamoylthio]-4-methyl-4H-1,2,4-triazol-5-yl} piperidine] | 41.87 ± 0.63% |  | 62.25 ± 0.86% | 287.7 ± 0.63 µM | 46.19 ± 1.76% |  | 53.67 ± 1.67% | 463.3 ± 1.36 µM | 45.29 ± 0.56% |  |  |  |
